Assay results as given in patent US9192577B2, “Pharmaceutical compositions comprising a basic drug compound, a surfactant, and a physiologically tolerable water soluble acid” (Janssen Pharmaceutica NV, priority 2002, dated 2015).

How the values were obtained:
HIV = assay: in vitro anti-HIV assay: inhibition of HIV-induced cytopathic effect in MT-4 cells (MTT); type: cell-based; conditions: for pSI: pSI = pCC50-pIC50 (selectivity index CC50/IC50); for IC50: Human immunodeficiency virus 1, MT4, −log IC50, 50% protection against HIV-induced cytopathic effect in MT-4 cells, MTT
Method: (§1) A rapid, sensitive and automated assay procedure was used for the in vitro evaluation of anti-HIV agents. […] Inhibition of the HIV-induced cytopathic effect was used as the end point. The viability of both HIV- and mock-infected cells was assessed spectrophotometrically via the in situ reduction of 3-(4,5-dimethylthiazol-2-yl)-2,5-diphenyltetrazolium bromide (MTT). The 50% cytotoxic concentration (CC50 in M) was defined as the concentration of compound that reduced the absorbance of the mock-infected control sample by 50%. The percent protection achieved by the compound in HIV-infected cells was calculated by the following formula:
(§2) [formula] whereby (ODT)HIV is the optical density measured with a given concentration of the test compound in HIV-infected cells; (ODC)HIV is the optical density measured for the control untreated HIV-infected cells; (ODC)MOCK is the optical density measured for the control untreated mock-infected cells; all optical density values were determined at 540 nm. The dose achieving 50% protection according to the above formula was defined as the 50% inhibitory concentration (IC50 in M). The ratio of CC50 to IC50 was defined as the selectivity index (SI).

[1] = cytotoxicity (CC50) in mock-infected MT-4 cells (MTT); type: cell-based; conditions: human, mock-infected MT-4 cells, −log CC50, MTT
Method: as §1, §2

[2] = effect of surfactant on solubility and stability of the supersaturated condition (0.01 N HCl, 37° C.); type: physicochemical
Method: Aqueous solutions of 2.5% (w/v) of hydroxypropyl-β-cyclodextrin (HPβCD), 2.5% (w/v) of Vit E TPGS [2], 2.5% (w/v) Cremophor RH 40 [3], 2.5% (w/v) of sodium lauryl sulfate or 2.5% (w/v) of PEG 4000 [5] in 0.01 N HCl at 37° C. were prepared.
To 10 ml of these solutions, with stirring, a concentrated solution of R278474 or R165335 in N,N-dimethylformamide (100 mg/ml) was added dropwise until precipitation of the drug compound was observed. After 5, 30, 60 and 120 minutes, the concentration of dissolved R278474 or R165335 expressed in mg % (i.e. the number of mg dissolved in 100 ml) was determined.

[3] = [1] 2.5% (w/v) HPβCD in 0.01 N HCl, 5 minutes
[4] = [1] 2.5% (w/v) HPβCD in 0.01 N HCl, 30 minutes
[5] = [1] 2.5% (w/v) HPβCD in 0.01 N HCl, 60 minutes
[6] = [1] 2.5% (w/v) HPβCD in 0.01 N HCl, 120 minutes
[7] = [5] 2.5% (w/v) PEG 4000 in 0.01 N HCl, 5 minutes
[8] = [5] 2.5% (w/v) PEG 4000 in 0.01 N HCl, 30 minutes
[9] = [5] 2.5% (w/v) PEG 4000 in 0.01 N HCl, 60 minutes
[10] = [5] 2.5% (w/v) PEG 4000 in 0.01 N HCl, 120 minutes

Row | Structure (SMILES) | melting point [°C] | pSI (HIV) | CC50 [1] [µM] | also measured
1 | Cc1cc(/C=C\Cl)cc(C)c1Nc1ccnc(Nc2ccc(C#N)cc2)n1 | 250 | – | – | –
2 | Cc1cc(C=C(Br)Br)cc(C)c1Nc1ccnc(Nc2ccc(C#N)cc2)n1 | 223 | – | – | –
3 | CCCCN(C)C(=O)/C=C/c1cc(C)c(Oc2ccnc(Nc3ccc(C#N)cc3)n2)c(C)c1 | 212 | – | – | –
4 | Cc1ccc(N(C)C)c(C)c1Nc1ccnc(Nc2ccc(C#N)cc2)n1 | 132 | – | – | –
5 | Cc1cc(/C=C/c2cccnc2)cc(C)c1Nc1ccnc(Nc2ccc(C#N)cc2)n1 | 120 | – | – | –
6 | Cc1cc(C(=O)CC#N)cc(C)c1Nc1ccnc(Nc2ccc(C#N)cc2)n1 | 150 | – | – | –
7 | Cc1cc(-c2ccco2)cc(C)c1Nc1ccnc(Nc2ccc(C#N)cc2)n1 [Compound 3] | – | −2.9 | 3.16 | –
8 | CO/N=C(\c1cc(C)c(Nc2ccnc(Nc3ccc(C#N)cc3)n2)c(C)c1)C(C)C [Compound 9] | – | −4 | 15.8 | –
9 | C/C(C#N)=C/c1cc(C)c(Nc2ccnc(Nc3ccc(C#N)cc3)n2)c(C)c1 [Compound 11] | – | −3.5 | 2 | IC50 (HIV): 0.000631 µM
10 | Cc1cc(C(O)CC#N)cc(C)c1Nc1ccnc(Nc2ccc(C#N)cc2)n1 (centres unmarked) [Compound 18] | – | −4.0 | 12.6 | –
11 | Cc1cc(-c2ccsc2)cc(C)c1Nc1ccnc(Nc2ccc(C#N)cc2)n1 [Compound 21] | – | −3.5 | 12.6 | –
12 | Cc1cc(CCC#N)cc(C)c1Nc1ccnc(Nc2ccc(C#N)cc2)n1 [Compound 24] | – | −3.4 | 2 | –
13 | CC(=O)c1cccc(-c2cc(C)c(Nc3ccnc(Nc4ccc(C#N)cc4)n3)c(C)c2)c1 [Compound 34] | – | −3.2 | 15.8 | –
14 | Cc1cc(/C=C(\C#N)c2cccs2)cc(C)c1Nc1ccnc(Nc2ccc(C#N)cc2)n1 [Compound 49] | – | −3.2 | 15.8 | –
15 | Cc1cc(Cn2ccnc2)cc(C)c1Nc1ccnc(Nc2ccc(C#N)cc2)n1 [Compound 70] | – | −3.3 | 15.8 | –
16 | Cc1cc(CN2CCSC2)cc(C)c1Nc1ccnc(Nc2ccc(C#N)cc2)n1 [Compound 78] | – | −3.5 | 12.6 | –
17 | CCN(Cc1ccncc1)Cc1cc(C)c(Nc2ccnc(Nc3ccc(C#N)cc3)n2)c(C)c1 [Compound 79] | – | −2.7 | 5.01 | –

Row | Structure (SMILES) | melting point [°C] | pSI (HIV) | CC50 [1] [µM] | also measured
18 | CCOCc1ccc(Oc2ccnc(Nc3ccc(C#N)cc3)n2)c(C)c1 [Compound 105] | 140 | <−3.2 | > 100 | –
19 | Cc1cc(/C=C(/C#N)C(=O)C(C)(C)C)cc(C)c1Nc1ccnc(Nc2ccc(C#N)cc2)n1 [Compound 106] | 193 | −2.5 | 6.31 | –
20 | Cc1cc(/C=C(/F)C#N)cc(C)c1Nc1ccnc(Nc2ccc(C#N)cc2)n1 [Compound 110] | 254 | −4.3 | – | IC50 (HIV): 0.00251 µM
21 | Cc1cc(/C=C/C(=O)N(C)C)cc(C)c1Nc1ccnc(Nc2ccc(C#N)cc2)n1 [Compound 112] | > 264 | −4.2 | 12.6 | –
22 | Cc1cc(/C=C/C(=O)N(C)CCC#N)cc(C)c1Nc1ccnc(Nc2ccc(C#N)cc2)n1 [Compound 114] | 168 | −3.5 | 7.94 | –
23 | Cc1cc(-n2cccc2)cc(C)c1Oc1ccnc(Nc2ccc(C#N)cc2)n1 [Compound 118] | – | <−4.1 | 79.4 | –
24 | Cc1cc(/C(Cl)=C\C#N)cc(C)c1Nc1ccnc(Nc2ccc(C#N)cc2)n1 [Compound 124] | – | −3.8 | 20 | –
25 | Cc1cc(-c2ccc(C#N)o2)cc(C)c1Nc1ccnc(Nc2ccc(C#N)cc2)n1 [Compound 126] | > 260 | −3.5 | 12.6 | –
26 | Cc1cc(/C=C/c2cccnc2)cc(C)c1Nc1ccnc(Nc2ccc(C#N)cc2)n1 [Compound 145] | – | −3.4 | 5.01 | –
27 | Cc1cc(/C=C/C(=O)N2CCN(C)CC2)cc(C)c1Nc1ccnc(Nc2ccc(C#N)cc2)n1 [Compound 155] | – | −2.5 | 0.501 | –
28 | Cc1cc(/C=C/C(=O)N2CCOCC2)cc(C)c1Nc1ccnc(Nc2ccc(C#N)cc2)n1 [Compound 156] | – | −2.6 | 7.94 | –
29 | Cc1cc(/C=C/C(=O)N2CC=CC2)cc(C)c1Oc1ccnc(Nc2ccc(C#N)cc2)n1 [Compound 209] | – | −3.7 | 12.6 | –
30 | Cc1cc(/C=C/C(=O)N(C)C2CCN(C)CC2)cc(C)c1Oc1ccnc(Nc2ccc(C#N)cc2)n1 [Compound 210] | – | −3.5 | 15.8 | –
31 | Cc1cc(/C=C/C(=O)N2CCOCC2)cc(C)c1Oc1ccnc(Nc2ccc(C#N)cc2)n1 [Compound 216] | – | −3.6 | 10 | –
32 | Cc1cc(C#N)cc(C)c1Oc1nc(Nc2ccc(C#N)cc2)nc(N)c1Br [Compound R165335, 4-[[6-amino-5-bromo-2-[(4-cyanophenyl)amino]-4-pyrimidinyl]oxy]-3,5-dimethylbenzonitrile] | – | – | – | concentration of dissolved drug [2, 3]: 0.04 mg %; concentration of dissolved drug [2, 4]: 0.12 mg %; concentration of dissolved drug [2, 5]: 0.17 mg %; concentration of dissolved drug [2, 6]: 0.07 mg %; concentration of dissolved drug ([2]; [3] 2.5% (w/v) Cremophor RH 40 in 0.01 N HCl, 5 minutes): 54.20 mg %; concentration of dissolved drug ([2]; [3] 2.5% (w/v) Cremophor RH 40 in 0.01 N HCl, 30 minutes): 24.88 mg %; concentration of dissolved drug ([2]; [3] 2.5% (w/v) Cremophor RH 40 in 0.01 N HCl, 60 minutes): 20.06 mg %; concentration of dissolved drug ([2]; [3] 2.5% (w/v) Cremophor RH 40 in 0.01 N HCl, 120 minutes): 18.44 mg %; concentration of dissolved drug ([2]; [4] 2.5% (w/v) sodium lauryl sulfate in 0.01 N HCl, 5 minutes): 35.09 mg %; concentration of dissolved drug ([2]; [4] 2.5% (w/v) sodium lauryl sulfate in 0.01 N HCl, 30 minutes): 37.85 mg %; concentration of dissolved drug ([2]; [4] 2.5% (w/v) sodium lauryl sulfate in 0.01 N HCl, 60 minutes): 38.80 mg %; concentration of dissolved drug ([2]; [4] 2.5% (w/v) sodium lauryl sulfate in 0.01 N HCl, 120 minutes): 38.35 mg %; concentration of dissolved drug [2, 7]: 0.02 mg %; concentration of dissolved drug [2, 8]: 0.04 mg %; concentration of dissolved drug [2, 9]: 0.07 mg %; concentration of dissolved drug [2, 10]: 0.04 mg %
33 | Cc1cc(C=CC#N)cc(C)c1Nc1ccnc(Nc2ccc(C#N)cc2)n1 [Compound R278474, 4-[[4-[[4-(2-cyanoethenyl)-2,6-dimethylphenyl]amino]-2-pyrimidinyl]amino]benzonitrile] | – | – | – | concentration of dissolved drug ([2]; 0.01N HCl, 5 minutes): 18.02 mg %; concentration of dissolved drug ([2]; 0.01N HCl, 30 minutes): 16.30 mg %; concentration of dissolved drug ([2]; 0.01N HCl, 60 minutes): 15.90 mg %; concentration of dissolved drug ([2]; 0.01N HCl, 120 minutes): 15.95 mg %; concentration of dissolved drug [2, 3]: 27.68 mg %; concentration of dissolved drug [2, 4]: 24.80 mg %; concentration of dissolved drug [2, 5]: 24.40 mg %; concentration of dissolved drug [2, 6]: 24.10 mg %; concentration of dissolved drug ([2]; [2] 2.5% (w/v) Vit E TPGS in 0.01 N HCl, 5 minutes): 91.75 mg %; concentration of dissolved drug ([2]; [2] 2.5% (w/v) Vit E TPGS in 0.01 N HCl, 30 minutes): 83.50 mg %; concentration of dissolved drug ([2]; [2] 2.5% (w/v) Vit E TPGS in 0.01 N HCl, 60 minutes): 76.25 mg %; concentration of dissolved drug ([2]; [2] 2.5% (w/v) Vit E TPGS in 0.01 N HCl, 120 minutes): 75.25 mg %; concentration of dissolved drug [2, 7]: 23.60 mg %; concentration of dissolved drug [2, 8]: 21.60 mg %; concentration of dissolved drug [2, 9]: 20.60 mg %; concentration of dissolved drug [2, 10]: 20.10 mg %
